{"source": "patent US10442773B2", "about": "“Amorphous letermovir and solid pharmaceutical formulations thereof for oral administration” (AICURIS ANTI-INFECTIVE CURES GMBH, priority 2013, dated 2019)", "note": "Several values for one entry are separate records, joined by “and”; a condition that tells them apart may be missing. Equal entries are not always repeated."}
{"test": "BET specific surface area analysis", "format": "physicochemical", "details": "further BET measurement accompanying the particle size analysis (Table 23)", "description": "(§1) BET specific surface area analysis was conducted on various batches of precipitated amorphous Letermovir. The same was done on a batch of Letermovir (named BXR3GBL) produced according to Example 11 of WO 2006/133822. The results of the analysis are shown below in Table 22: The particular BET method is characterized by the following parameter: Principle: Nitrogen adsorption at 77 K; method according to Brunauer, Emmett and Teller Method: volumetric method (method II) according to USP <846> Instrument: Tristar 3000/VacPrep 061 (Micromeritics) Sample mass: approximately 1.5-2.5 g Sample preparation: degassing for 2 h at 40° C. under vacuum (final vacuum <2.7 Pa) Pressure range p/p0: 0.05-0.15 (3 data points).", "units": {"Specific Surface Area (SSA), m^2/g": "m^2/g"}}
{"smiles": "COc1cccc(N2CCN(C3=Nc4c(F)cccc4[C@H](CC(=O)O)N3c3cc(C(F)(F)F)ccc3OC)CC2)c1", "note": "[Batch 1300735]", "Specific Surface Area (SSA), m^2/g": 2.18}
{"smiles": "COc1cccc(N2CCN(C3=Nc4c(F)cccc4[C@H](CC(=O)O)N3c3cc(C(F)(F)F)ccc3OC)CC2)c1", "note": "[Batch 1300750]", "Specific Surface Area (SSA), m^2/g": 2.1}
{"smiles": "COc1cccc(N2CCN(C3=Nc4c(F)cccc4[C@H](CC(=O)O)N3c3cc(C(F)(F)F)ccc3OC)CC2)c1", "note": "[Batch BXR3GBL, reference compound]", "Specific Surface Area (SSA), m^2/g": 1.55}
{"test": "BET specific surface area analysis", "format": "physicochemical", "details": "isolated API", "description": "as §1"}
{"smiles": "COc1cccc(N2CCN(C3=Nc4c(F)cccc4[C@H](CC(=O)O)N3c3cc(C(F)(F)F)ccc3OC)CC2)c1", "note": "[precipitated Letermovir, (S)-{8-fluoro-2-[4-(3-methoxyphenyl)piperazin-1-yl]-3-(2-methoxy-5-trifluormethylphenyl)-3,4-dihydroquinazolin-4-yl}acetic acid]", "specific surface area": "1.2-2 m^2/g"}
{"smiles": "COc1cccc(N2CCN(C3=Nc4c(F)cccc4[C@H](CC(=O)O)N3c3cc(C(F)(F)F)ccc3OC)CC2)c1", "note": "[roller dried Letermovir]", "specific surface area": "< 1 m^2/g"}
{"test": "BET specific surface area analysis", "format": "physicochemical", "details": "nitrogen adsorption at 77 K", "description": "as §1"}
{"smiles": "COc1cccc(N2CCN(C3=Nc4c(F)cccc4[C@H](CC(=O)O)N3c3cc(C(F)(F)F)ccc3OC)CC2)c1", "note": "[Batch 40474375]", "Specific Surface Area (SSA), m^2/g; BET value on average": "1.46 m^2/g"}
{"smiles": "COc1cccc(N2CCN(C3=Nc4c(F)cccc4[C@H](CC(=O)O)N3c3cc(C(F)(F)F)ccc3OC)CC2)c1", "note": "[Batch 40474463]", "Specific Surface Area (SSA), m^2/g; BET value on average": "1.23 m^2/g"}
{"smiles": "COc1cccc(N2CCN(C3=Nc4c(F)cccc4[C@H](CC(=O)O)N3c3cc(C(F)(F)F)ccc3OC)CC2)c1", "note": "[Batch 40475297]", "Specific Surface Area (SSA), m^2/g; BET value on average": "1.25 m^2/g"}
{"smiles": "COc1cccc(N2CCN(C3=Nc4c(F)cccc4[C@H](CC(=O)O)N3c3cc(C(F)(F)F)ccc3OC)CC2)c1", "note": "[Batch 40479189]", "Specific Surface Area (SSA), m^2/g; BET value on average": "1.26 m^2/g"}
{"smiles": "COc1cccc(N2CCN(C3=Nc4c(F)cccc4[C@H](CC(=O)O)N3c3cc(C(F)(F)F)ccc3OC)CC2)c1", "note": "[Batch 40479198]", "Specific Surface Area (SSA), m^2/g; BET value on average": "2.09 m^2/g"}
{"smiles": "COc1cccc(N2CCN(C3=Nc4c(F)cccc4[C@H](CC(=O)O)N3c3cc(C(F)(F)F)ccc3OC)CC2)c1", "note": "[Batch 40479200]", "Specific Surface Area (SSA), m^2/g; BET value on average": "1.30 m^2/g"}
{"smiles": "COc1cccc(N2CCN(C3=Nc4c(F)cccc4[C@H](CC(=O)O)N3c3cc(C(F)(F)F)ccc3OC)CC2)c1", "note": "[Batch 40479201]", "Specific Surface Area (SSA), m^2/g; BET value on average": "1.97 m^2/g"}
{"smiles": "COc1cccc(N2CCN(C3=Nc4c(F)cccc4[C@H](CC(=O)O)N3c3cc(C(F)(F)F)ccc3OC)CC2)c1", "note": "[Batch 40479202]", "Specific Surface Area (SSA), m^2/g; BET value on average": "1.69 m^2/g"}
{"smiles": "COc1cccc(N2CCN(C3=Nc4c(F)cccc4[C@H](CC(=O)O)N3c3cc(C(F)(F)F)ccc3OC)CC2)c1", "note": "[Batch 40479248]", "Specific Surface Area (SSA), m^2/g; BET value on average": "1.45 m^2/g"}
{"smiles": "COc1cccc(N2CCN(C3=Nc4c(F)cccc4[C@H](CC(=O)O)N3c3cc(C(F)(F)F)ccc3OC)CC2)c1", "note": "[Batch 40479326]", "Specific Surface Area (SSA), m^2/g; BET value on average": "1.76 m^2/g"}
{"smiles": "COc1cccc(N2CCN(C3=Nc4c(F)cccc4[C@H](CC(=O)O)N3c3cc(C(F)(F)F)ccc3OC)CC2)c1", "note": "[Batch 40479434]", "Specific Surface Area (SSA), m^2/g; BET value on average": "1.48 m^2/g"}
{"smiles": "COc1cccc(N2CCN(C3=Nc4c(F)cccc4[C@H](CC(=O)O)N3c3cc(C(F)(F)F)ccc3OC)CC2)c1", "note": "[Batch 40479463]", "Specific Surface Area (SSA), m^2/g; BET value on average": "1.45 m^2/g"}
{"smiles": "COc1cccc(N2CCN(C3=Nc4c(F)cccc4[C@H](CC(=O)O)N3c3cc(C(F)(F)F)ccc3OC)CC2)c1", "note": "[Batch 40483515]", "Specific Surface Area (SSA), m^2/g; BET value on average": "1.03 m^2/g"}
{"smiles": "COc1cccc(N2CCN(C3=Nc4c(F)cccc4[C@H](CC(=O)O)N3c3cc(C(F)(F)F)ccc3OC)CC2)c1", "note": "[Batch 40483516]", "Specific Surface Area (SSA), m^2/g; BET value on average": "1.28 m^2/g"}
{"smiles": "COc1cccc(N2CCN(C3=Nc4c(F)cccc4[C@H](CC(=O)O)N3c3cc(C(F)(F)F)ccc3OC)CC2)c1", "note": "[Batch 40483517]", "Specific Surface Area (SSA), m^2/g; BET value on average": "1.87 m^2/g and 1.83 m^2/g"}
{"smiles": "COc1cccc(N2CCN(C3=Nc4c(F)cccc4[C@H](CC(=O)O)N3c3cc(C(F)(F)F)ccc3OC)CC2)c1", "note": "[Batch BXR3GBL, reference compound]", "Specific Surface Area (SSA), m^2/g; BET value on average": "0.64 m^2/g"}
{"test": "Laser diffraction particle size distribution analysis (Mastersizer 2000)", "format": "physicochemical", "details": "Mastersizer 2000, dry dispersion, average of four analyses", "description": "Laser diffraction particle size distribution analysis was conducted on two batches of precipitated amorphous Letermovir of the invention and on a batch of amorphous Letermovir (referred to as BXR3GBL) produced according to Example 11 of WO 2006/133822 while using laser diffraction technique of the Mastersizer 2000 (Malvern Instruments). The results of the analysis are presented in FIG. 9(a-c) in the form of three particle size distribution charts and the numeric part of the results is shown below in Table 23: The particular PSD analysis method is characterized by the following parameter: Device: Mastersizer 2000 with dry dispersion Modus: Fraunhofer; weight-in quantity: 0.3-0.4 g Measurement time: 20 seconds Background time: 6 seconds Obscuration limits: 0.5 to 6% Sample tray: micro volume; small sieve with balls Feed rate: 45-55% Dispersive pressure: 2.5 bar Four independent analyses were performed and the results were averaged.", "units": {"Particle Size Median Value d(0.5), μm": "μm"}}
{"smiles": "COc1cccc(N2CCN(C3=Nc4c(F)cccc4[C@H](CC(=O)O)N3c3cc(C(F)(F)F)ccc3OC)CC2)c1", "note": "[Batch 1300735]", "Particle Size Median Value d(0.5), μm": 8.880}
{"smiles": "COc1cccc(N2CCN(C3=Nc4c(F)cccc4[C@H](CC(=O)O)N3c3cc(C(F)(F)F)ccc3OC)CC2)c1", "note": "[Batch 1300750]", "Particle Size Median Value d(0.5), μm": 9.383}
{"smiles": "COc1cccc(N2CCN(C3=Nc4c(F)cccc4[C@H](CC(=O)O)N3c3cc(C(F)(F)F)ccc3OC)CC2)c1", "note": "[Batch BXR3GBL, reference compound]", "Particle Size Median Value d(0.5), μm": 21.607}
